Results taken from patent US7524503B2, “Human cytomegalovirus (HCMV) cytotoxic T cell epitopes, polyepitopes compositions comprising same and diagnostic and prophylactic and therapeutic uses therefor” (priority 2001, dated 2009).
Values joined by “and” are separate entries in the source; they are usually repeats but may differ in a detail not shown here. Identical values can stand only once. Like-named read-outs stand apart in the source and are kept apart here.

Key:
Type in all cases: cell-based, human
[1] = system: PBMC from healthy HCMV seropositive donors; experiment: IFN-γ ELISPOT assay; settings: for ELISPOT Responses (SFC/10^6 PBMC): peptide 10 μg/ml
Summary of the method: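 PBMC from healthy HCMV-seropositive donors (2.5×10^5 cells/well) were stimulated 18 h at 37° C with individual synthetic HCMV peptides (10 μg/ml) on anti-IFN-γ-coated nitrocellulose. IFN-γ spots were developed with biotinylated antibody and streptavidin-alkaline phosphatase and counted automatically. Counts were averaged over 3 wells, and no-peptide wells were subtracted.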

CD4+ T cells = experiment: CD4+/CD8+ analysis of 20-mer peptides (intracellular IFN-γ staining or depletion ELISPOT)
Description: (§1) To determine whether a particular 20-mer peptide contained either a CD4^+- or CD8^+-restricted epitope, or both, CD4^+/CD8^+ cell depletion ELISPOT assays were performed on PBMC from healthy virus carriers. For any one experiment, three populations of cells were used: a) CD8^+-depleted PBMC, b) CD4^+-depleted PBMC, and c) non-depleted PBMC. These populations of cells were tested concurrently with the same peptides in a conventional ELISPOT assay as described herein above. DYNABEADS M-450 (Dynal, Oslo, Norway) that bound specifically to CD4^+- or CD8^+ cells were used to perform the depletion essentially according to manufacturers instructions. Beads were washed twice in cold PBS supplemented with 2% FCS using magnetic isolation. The requisite number of cells was resuspended in cold PBS supplemented with 2% FCS, added to the beads and then incubated at 4° C., in the dark, for 30 mins (CD8^+ beads) or 60 mins (CD4^+ beads). Populations were depleted of CD4^+ or CD8^+ cells using magnetic separation. After depletion, the non-attached cells were removed and washed once in growth medium, counted and used in conventional ELISPOT assay. Depleted cells were used at 1.7×10^5 cells per well and the non-depleted population was used at the standard 2.5×10^5 cells per well. After the depletion step, each respective cell population was assessed for the purity of CD4^+ and CD8^+ T cells by three-colour flow cytometry. Samples of depleted cell populations were stained with anti-CD3 antibody directly conjugated to fluorescein isothiocyanate (FITC), anti-CD4 antibody conjugated with phycoerythrin (PE) fluorochrome, and anti-CD8 antibody conjugated with Tricolor fluorochrome (described below). The percent of CD3^+/CD4^+ cells present within the CD8^+-depleted population and the percent of CD3^+/CD8^+ cells present within the CD4^+-depleted populations were assessed on FACSCalibur cytometer (Becton Dickinson). The purity of each population was greater than 90% and the results from the ELISPOT assays are expressed as the percentage of CD4+ or CD8^+ cells within the depleted populations that responded toward each peptide by producing IFN-γ.
(§2) PBMCs were incubated at 37° C. in RPMI+10% FCS with and without 10 μg/ml peptides for 6 hours. Golgiplug™ (Pharmingen, San Diego, Calif., USA) was added to the samples according to manufacturer's instructions during the second hour of incubation and cells activated with 25 ng/ml phorbol 12-myristidate 13-acetate (PMA; Sigma-Aldrich Co, St. Louis Mo.) and 1 μg/ml iomomycin (Sigma) acted as a positive control. Following the incubation, 1×10^6 cells/sample were washed and resuspended in staining buffer consisting of PBS with GolgiPlug™, 3% FCS and sodium azide. Cells were then stained with FITC conjugated anti-CD3-FITC (UCHT1, Immunotech, Marseille, France), and either Tricolor (TRI) conjugated anti-CD4 (S3.5, Caltag, Burlingame, Calif.) or anti-CD8 (3B5, Caltag) for 30 minutes, 4° C. in the dark. The cells were fixed for 20 min at 4° C. with Cytofix/Cytoperm™ (BD Biosciences) and resuspended in Perm/Wash™ permeabilization buffer (BD Biosciences) according to manufacturers protocol. Fixed cells were stained with phycoerythrin (PE) conjugated anti-human IFN-γ (B27, Pharmingen) for 30 min at 4° C. in the dark. As a negative control, cells were stained with appropriate isotype matched control antibodies. Cells were washed twice in permeabilization buffer and resuspended in staining buffer before analysis by three-colour flow cytometry on a FACSCalibur cytometer (BD Biosciences). All data analysis was carried out using FlowJo software (Tree Star, Inc. San Carlos, CA).
(§3) When using 20-mer peptides to map epitopes by ELISPOT, it is possible that some responses may be MHC class-II restricted, and not necessarily restricted through HLA class I alleles. It was evident throughout this study that some epitopes identified using ELISPOT could not be confirmed using cytotoxicity analysis. […]

CD8+ T cells = experiment: as above
Description: as §1, §2, §3

[2] = system: peptide-sensitized autologous PHA blasts or LCLs; parameters: key to CTL response: Y: Yes; ND: Not detected
[3] = overlapping 20mer peptides, Table 4

What does the source list for GAAQGDDDVWTSGSDSDEEL?
ELISPOT Responses (SFC/10^6 PBMC) ([1]; donor eight): JW(248) SFC/10^6 PBMC; Responding cells (% CD4) (CD4+ T cells; donor eight): 0%; Responding cells (% CD8) (CD8+ T cells; donor eight): 0.01%

Which results are given for “VLCCYVLEETSVMLAKRPLI (human cytomegalovirus IE1 CTL epitope peptide)”?
ELISPOT Responses (SFC/10^6 PBMC) ([1]; donor seven): SB(2171) SFC/10^6 PBMC; CTL response [2, 3]: Y

CKTMQVNNKGIQIIYTRNHE was tested. Which “ELISPOT Responses (SFC/10^6 PBMC)” value ([1]; donor sixteen) did it give?
Its value is “TC(154) SFC/10^6 PBMC”.

What about the “Responding cells (% CD4)” value (CD4+ T cells; donor sixteen) of the same sequence?
Its value is 0%.

And the “Responding cells (% CD8)” value (CD8+ T cells; donor sixteen)?
The value was 0.14%.

What does the source list for “SDSESESEEMKCSSGGGASV (human cytomegalovirus IE2 CTL epitope peptide)”?
ELISPOT Responses (SFC/10^6 PBMC) ([1]; donor sixteen): TC(147) SFC/10^6 PBMC; Responding cells (% CD4) (CD4+ T cells; donor sixteen): 0.01%; Responding cells (% CD8) (CD8+ T cells; donor sixteen): 0.22%

Which “ELISPOT Responses (SFC/10^6 PBMC)” value ([1]; donor epsilon) does the source give for QEFFWDANDIYRIFAELEGV here?
Its value is “SC(704) SFC/10^6 PBMC”.

What about the “ELISPOT Responses (SFC/10^6 PBMC)” value ([1]; donor five) of the same sequence?
Its value is “CS(107) SFC/10^6 PBMC”.

What about the “ELISPOT Responses (SFC/10^6 PBMC)” value ([1]; donor gamma) of the same sequence?
Its value is 295 SFC/10^6 PBMC.

And the “ELISPOT Responses (SFC/10^6 PBMC)” value ([1]; donor twelve)?
The value was 30 SFC/10^6 PBMC.

What about the CTL response [2, 3] of the same sequence?
Its CTL response is “Y”.

What does the source list for NLVPMVATV [reference compound]?
donors recognizing the epitope in ELISPOT ([1]; cohort of eight HLA A2-positive healthy seropositive donors): recognized by every donor tested; ELISPOT Responses (SFC/10^6 PBMC) ([1]; donor delta): 170 SFC/10^6 PBMC; ELISPOT Responses (SFC/10^6 PBMC) ([1]; donor fifteen): 356 SFC/10^6 PBMC and 671 SFC/10^6 PBMC; ELISPOT Responses (SFC/10^6 PBMC) ([1]; donor one): 1201 SFC/10^6 PBMC; ELISPOT Responses (SFC/10^6 PBMC) ([1]; donor seven): 1202 SFC/10^6 PBMC; ELISPOT Responses (SFC/10^6 PBMC) ([1]; donor seventeen): 271 SFC/10^6 PBMC; ELISPOT Responses (SFC/10^6 PBMC) ([1]; donor six): 1195 SFC/10^6 PBMC; ELISPOT Responses (SFC/10^6 PBMC) ([1]; donor thirteen): 161 SFC/10^6 PBMC; CTL response ([2]; predicted epitopes, Table 3): Y

For TRATKMQVIGDQYVKVYLES, which “ELISPOT Responses (SFC/10^6 PBMC)” value ([1]; donor alpha) is on record?
The value was 139 SFC/10^6 PBMC.

And the “ELISPOT Responses (SFC/10^6 PBMC)” value ([1]; donor seven)?
The value was 346 SFC/10^6 PBMC.

And the “Responding cells (% CD4)” value (CD4+ T cells; donor seven)?
Its value is 0.09%.

What about the “Responding cells (% CD8)” value (CD8+ T cells; donor seven) of the same sequence?
The value was 0.01%.

Which results are given for “SEPVSEIEEVAPEEEEDGAE (human cytomegalovirus IE1 CTL epitope peptide)”?
ELISPOT Responses (SFC/10^6 PBMC) ([1]; donor delta): SE(200) SFC/10^6 PBMC; Responding cells (% CD4) (CD4+ T cells; donor delta): 0%; Responding cells (% CD8) (CD8+ T cells; donor delta): 0.097%

How did the “ELISPOT Responses (SFC/10^6 PBMC)” value ([1]; donor eight) turn out when TGGGAMAGASTSAGRKRKSA was run?
The value was “JW(441) SFC/10^6 PBMC”.

What about the “Responding cells (% CD4)” value (CD4+ T cells; donor eight) of the same sequence?
Its value is “JW(0.01/0.01) %”.

And the “Responding cells (% CD8)” value (CD8+ T cells; donor eight)?
The value was “JW(0.01/0.01) %”.

What does the source list for “KAAWSLKELHTHQLCPRSSD (human cytomegalovirus IE2 CTL epitope peptide)”?
ELISPOT Responses (SFC/10^6 PBMC) ([1]; donor sixteen): TC(162) SFC/10^6 PBMC; Responding cells (% CD4) (CD4+ T cells; donor sixteen): 0%; Responding cells (% CD8) (CD8+ T cells; donor sixteen): 0.08%

With TGPRKKKSKRISELDNEKVR as the sequence, how does the “ELISPOT Responses (SFC/10^6 PBMC)” value ([1]; donor delta) read?
Its value is 162 SFC/10^6 PBMC.

And the “ELISPOT Responses (SFC/10^6 PBMC)” value ([1]; donor seven)?
The value was 148 SFC/10^6 PBMC.

What about the “Responding cells (% CD4)” value (CD4+ T cells; donor seven) of the same sequence?
The value was “SB(0.02/0.02) %”.

What about the “Responding cells (% CD8)” value (CD8+ T cells; donor seven) of the same sequence?
Its value is “SB(0.02/0.02) %”.

For “SSSSSSCSSASDSESESEEM (human cytomegalovirus IE2 CTL epitope peptide)”, which “ELISPOT Responses (SFC/10^6 PBMC)” value ([1]; donor eight) is on record?
The value was 125 SFC/10^6 PBMC.

And the “ELISPOT Responses (SFC/10^6 PBMC)” value ([1]; donor sixteen)?
The value was 93 SFC/10^6 PBMC.

And the “Responding cells (% CD4)” value (CD4+ T cells; donor eight)?
Its value is 0%.

What about the “Responding cells (% CD4)” value (CD4+ T cells; donor sixteen) of the same sequence?
Its value is 0%.

What about the “Responding cells (% CD8)” value (CD8+ T cells; donor eight) of the same sequence?
Its value is 0.01%.

What about the “Responding cells (% CD8)” value (CD8+ T cells; donor sixteen) of the same sequence?
The value was 0.05%.
